“Also recorded” adds a separate entry of the source. Like-named read-outs stand apart in the source and are kept apart here. Numbered stars: 1 amine (or outer) side, 2 acyl side, 3 side chain; on linkers, the order of the positions; unused ones are H or OH. Side chains are listed from the residue outwards. Ends that are not written are not given here. Peptide text beside a SMILES is read from it. * marks the point of attachment. X1 = C[C@H](NC(=O)[C@@H]1CCCN1C(=O)[C@@H](N)CSC1CC(=O)N(CCC(=O)*)C1=O)C(=O)N[C@@H](CCCCN)C(=O)O; γGlu = O=C(O)[C@H](CCC(=O)[*:2])N[*:1]; Fumaroyl = O=C(O)/C=C/C(=O)*; Suc = O=C(CCC(=O)[*:2])[*:1]; Lauroyl = CCCCCCCCCCCC(=O)*; AEEA = NCCOCCOCC(=O)O
Experiments:
rat ETB receptor = target: T1, rat ETB receptor (Rattus norvegicus, UniProt P21451); assay: Determination of EC50s of polypeptides against rat ETB receptor; format: cell-based; settings: Table 8, rat ETB receptor; for EC50: read-out: DETAR Agonist Activity EC50
T1 construct: expressed in transfected cells
T1 sequence (P21451 27-442): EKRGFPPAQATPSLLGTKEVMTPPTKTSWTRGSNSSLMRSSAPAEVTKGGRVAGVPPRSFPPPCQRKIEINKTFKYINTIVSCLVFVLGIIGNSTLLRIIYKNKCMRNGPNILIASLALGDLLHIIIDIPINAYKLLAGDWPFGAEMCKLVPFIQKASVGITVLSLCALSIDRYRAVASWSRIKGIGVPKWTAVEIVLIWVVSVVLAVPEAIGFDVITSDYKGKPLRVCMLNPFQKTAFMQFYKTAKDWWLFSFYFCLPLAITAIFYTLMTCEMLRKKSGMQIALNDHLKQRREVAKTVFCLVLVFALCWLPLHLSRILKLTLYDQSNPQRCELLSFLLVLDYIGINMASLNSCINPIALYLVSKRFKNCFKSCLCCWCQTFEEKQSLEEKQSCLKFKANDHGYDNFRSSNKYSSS
Experimental: 293T-17 cells were seeded at a density of 650,000 cells per well in a 6-well plate and cultured overnight in an incubator at 37°C and 5% CO2. Afterward, the cells were transfected with an expression vector, PCDNA3.1-hETB which contained a human ETB receptor gene, at a plasmid concentration of 2.5 µg per well. The cells were further cultured for 48 hours, and green fluorescence expression was observed under a fluorescence microscope. The cells were then digested with trypsin and counted. The activity of compounds on the human ETB receptor was determined with the IP-One Gq kit from Cisbio Bioassays. The cells were suspended in Stim Buffer provided in the kit and the cell suspension was added to a 96-well detection plate at 7 µL cell suspension (containing 30,000 cells) per well. The polypeptides to be tested (prepared according to the Preparation Example of the invention) were diluted in Stim B to obtain a gradient of 11 concentration points. For each concentration point, the polypeptides to be tested were dissolved in Stim B to be at a concentration of 2×, and added at 7 µL to the test cells, while 7 µL of PBS solution was added to the cells in the negative control wells. The plate was sealed and incubated at 37°C for 1 hour in a cell culture incubator. Detection wells, positive control wells containing human endothelin ET1 (ET1: […] (C1-C15,C3-C11)), and PBS control wells were each added with 3 µL of IP1 d2 working solution and 3 µL of IP1 Tb cryptotate Antibody working solution. The plate was then sealed and incubated in the dark at room temperature (25°C±5°C) for 1 hour. The plate seal was removed, and the […] at 665 nm and 620 nm was measured with an ID5 microplate reader. The ratio of the acceptor emission signal to the donor emission signal, i.e., (signal at 665 nm/signal at 620 nm)×10^4, was calculated for each well. With F representing the average value of values of signal at 665 nm/signal at 620 nm for the test samples at various concentrations, a scatterplot was plotted, where the abscissa represented the F value, and the ordinate represented the logarithmic value of the peptide concentration. A curve was fitted with an appropriate method to calculate EC50 values of the polypeptides against the human ETB receptor. Another method was provided for fitting a curve where activation rate of the test polypeptides at each concentration relative to the positive control sample human endothelin ET1 was calculated first with the method in Example 1, and a scatterplot was plotted, where the abscissa represented the activation rate, and the ordinate represented the logarithmic value of the polypeptide concentration. A curve was fitted with an appropriate method to calculate the EC50 values of the polypeptides against the human ETB receptor.
The process is the same as that in Example 3, except that the transfected plasmid was expression vector PCDNA3.1-RETB which contained a rat ETB receptor gene. EC50 values of the polypeptides against the rat ETB receptor were calculated (see Figures 11-13). The sequence of the rat ETB receptor (NCBI accession number: X57764.1).

male SD rats = settings: one animal per row, observed 48 hours
Experimental: In an experiment about acute toxicity of subcutaneous administration, male SD rats weighing 200-230 g were dosed in a range between 60 µg/Kg and 960 µg/Kg. Observation was made for 48 hours after subcutaneous administration. Toxic response and mortality of the rats were preliminarily observed, and time of death and doses without mortality were recorded. The level of acute toxicity of the polypeptides was preliminarily determined based on the doses without mortality.

rat model of pMACO = assay: mRS-6 scoring in rat model of pMACO; format: in vivo, SD rats; set-up: mRS-7D / mRS-14D / mRS-21D / mRS-30D: scale not given here; settings: for mRS-7D: day 7; for mRS-14D: day 14; for mRS-21D: day 21; for mRS-30D: day 30
Description: Male SD rats, weighing 280-300 g, were used and acclimatized for at least 3 days. Focal cerebral ischemia was induced by middle cerebral artery occlusion with a suture method under isoflurane anesthesia. The animals were placed in a supine position, a midline incision was made, and the right common carotid artery, external carotid artery, and internal carotid artery were exposed. A 4.0 monofilament nylon suture was advanced from the external carotid artery toward the internal carotid artery lumen until resistance was felt (~20 mm), indicating middle cerebral artery occlusion. The nylon filament was allowed to stay in place to create a permanent model of focal cerebral ischemia. The day of modeling was defined as D1, the next day as D2, and so on. Since the experiment was not be completed in a single batch, and in order to prevent accidental errors, all operations in this experiment had to follow the principle of parallel operation, i.e., the experiment on each day needed to include animals from each group. Sequential numbering for surgical modeling was obtained by sorting the animals according to their body weight before the experiment. After the surgery, successfully modeled pMCAO rats were randomly assigned into a model group and various treatment groups. The detailed grouping of the experiment was as follows: (1) 15 rats in the 5 µg/Kg IRL1620 group with 9 administrations over 3 days; (2) 15 rats in the 6.6 µg/Kg BX225 group with 9 administrations over 3 days; (3) 15 rats in the 19.8 µg/Kg BX225 group with 3 administrations over 3 days; (4) 15 rats in the model (normal saline) group; and (5) 6 rats in the sham group (the sham group underwent the same procedure without vascular ligation and suture insertion). The administration was performed via tail vein injection (iv) with an administration volume of 2 mL/kg. The first administration was 2 hours after the surgery. Administration frequencies were single and multiple administrations per day according to the experimental design. Administrations were performed on D1, D3, and D6, respectively, as detailed in Table 22. The model group and the sham group were given the same volume of vehicle normal saline.

[1] = 3Time regimen: IRL1620 5 µg/Kg, BX225 6.6 µg/Kg
[2] = pMCAO rats, 6.6 µg/Kg three-dose group, iv

With Fum-DEEEVYFAHOrnDIIW [BX-59] the “DETAR Agonist Activity, %” value (rat ETB receptor; @10nM) was 314.15%@10n M and the “DETAR Agonist Activity, %” value (rat ETB receptor; @100nM) was 46.94%@100n M.

With `CCCCCCCCCCCC(=O)N[C@@H](CCC(=O)NCCOCCOCC(=O)NCCCC[C@H](NC(=O)[C@H](Cc1c[nH]cn1)NC(=O)[C@H](C)NC(=O)[C@H](Cc1ccccc1)NC(=O)[C@H](Cc1ccc(O)cc1)NC(=O)[C@@H](NC(=O)[C@H](C)NC(=O)[C@H](CCC(=O)O)NC(=O)[C@H](CCC(=O)O)NC(=O)[C@H](CC(=O)O)NC(=O)/C=C/C(=O)O)C(C)C)C(=O)N[C@@H](CC(=O)O)C(=O)N[C@H](C(=O)N[C@H](C(=O)N[C@@H](Cc1c[nH]c2ccccc12)C(=O)O)[C@@H](C)CC)C(C)C)C(=O)O` [BX229-Na] (Fumaroyl-DEEAVYFAHK([AEEA-γGlu-Lauroyl])DVIW-OH) the “Observations of Animal Status” value (male SD rats; subcutaneous 120 µg/Kg) was “No obvious reaction observed within 24 hours”, the “Observations of Animal Status” value (male SD rats; subcutaneous 240 µg/Kg) was “No obvious abnormal reaction observed within 48 hours” and the “Observations of Animal Status” value (male SD rats; subcutaneous 480 µg/Kg) was “No obvious abnormal reaction observed within 48 hours”. The “Observations of Animal Status” value (male SD rats; subcutaneous 960 µg/Kg) was “No significant reaction within 2 hours, died at 2 hours and 10 minutes; also recorded: No obvious abnormal reaction observed within 48 hours” and the EC50 (rat ETB receptor) was 7.22 nM.

With `CCCCCCCCCCCC(=O)N[C@@H](CCC(=O)NCCOCCOCC(=O)NCCCC[C@H](NC(=O)[C@H](Cc1c[nH]cn1)NC(=O)[C@H](C)NC(=O)[C@H](Cc1ccccc1)NC(=O)[C@H](Cc1ccc(O)cc1)NC(=O)[C@@H](NC(=O)[C@H](C)NC(=O)[C@H](CCC(=O)O)NC(=O)[C@H](CCC(=O)O)NC(=O)[C@H](CC(=O)O)NC(=O)/C=C/C(=O)O)C(C)C)C(=O)N[C@@H](CC(=O)O)C(=O)N[C@H](C(=O)N[C@H](C(=O)N[C@@H](Cc1c[nH]c2ccccc12)C(=O)O)[C@@H](C)CC)[C@@H](C)CC)C(=O)O` [BX-225] (Fumaroyl-DEEAVYFAHK([AEEA-γGlu-Lauroyl])DIIW-OH) the mRS-7D (rat model of pMACO; 19.8 µg/Kg, 1Time regimen) was 3.14±2.14, the mRS-7D (rat model of pMACO; [1]) was 1.67±0.50 and the mRS-14D (rat model of pMACO; 19.8 µg/Kg, 1Time regimen) was 3.90±2.61. It also gave a mRS-14D (rat model of pMACO; [1]) of 1.17±0.50, a mRS-21D (rat model of pMACO; 19.8 µg/Kg, 1Time regimen) of 3.73±2.81 and a mRS-21D (rat model of pMACO; [1]) of 0.75±0.41. The mRS-30D (rat model of pMACO; 19.8 µg/Kg, 1Time regimen) was 3.65±2.91, the mRS-30D (rat model of pMACO; [1]) was 0.50±0.31 and the “mRS-6 score on day 14 compared with the normal saline group and the IRL1620 three-dose group” value (rat model of pMACO; [2]) was “close to a significant difference”. The “mRS-6 scores, course from day 7, day 14, day 21, to day 30” value (rat model of pMACO; [2]) was “continuous improvement” and the “mRS-6 scores on days 7, 21, and 30 compared with the normal saline group and the IRL1620 three-dose group” value (rat model of pMACO; pMCAO rats, 6.6 µg/Kg three-dose group, iv, P<0.05) was “significant differences”.

`CC[C@H](C)[C@H](NC(=O)[C@H](CC(=O)O)NC(=O)[C@H](CCCCNC(=O)COCCOCCNC(=O)CCN1C(=O)CC(SC[C@H](N)C(=O)N2CCC[C@H]2C(=O)N[C@@H](C)C(=O)N[C@@H](CCCCN)C(=O)O)C1=O)NC(=O)[C@H](Cc1c[nH]cn1)NC(=O)[C@H](C)NC(=O)[C@H](Cc1ccccc1)NC(=O)[C@H](Cc1ccc(O)cc1)NC(=O)[C@@H](NC(=O)[C@H](C)NC(=O)[C@H](CCC(=O)O)NC(=O)[C@H](CCC(=O)O)NC(=O)[C@H](CC(=O)O)NC(=O)/C=C/C(=O)O)C(C)C)C(=O)N[C@H](C(=O)N[C@@H](Cc1c[nH]c2ccccc12)C(=O)O)[C@@H](C)CC` (some centres unmarked) [BX-95] (Fumaroyl-DEEAVYFAHK([AEEA-X1])DIIW-OH) gave an EC50 (rat ETB receptor) of 24 nM.

“Suc-DE cyclo(CEEC)YFAHKDIIW (Suc-DECEECYFAHKDIIW; not fully specified (bridges); printed as Suc-DE cyclo(CEEC)YFAHKDIIW; also: cyclo(CEEC) in N-terminal extension, bond type not given here) [BX-57]” was tested, and the “DETAR Agonist Activity, %” value (rat ETB receptor; @10nM) was 67.42% and the “DETAR Agonist Activity, %” value (rat ETB receptor; @100nM) was 218.34%.

In the case of “Fum-DEEEVYFAHKDIIW (Fumaroyl-DEEEVYFAHKDIIW) [BX-52]”, the “DETAR Agonist Activity, %” value (rat ETB receptor; @10nM) is reported as 22.36%@10n M and the “DETAR Agonist Activity, %” value (rat ETB receptor; @100nM) is reported as 389.09%@100 nM.

`CC[C@H](C)[C@H](NC(=O)[C@H](CC(=O)O)NC(=O)[C@H](CC(C)C)NC(=O)[C@H](Cc1c[nH]cn1)NC(=O)[C@H](C)NC(=O)[C@H](Cc1ccccc1)NC(=O)[C@H](Cc1ccc(O)cc1)NC(=O)[C@@H](NC(=O)[C@H](C)NC(=O)[C@H](CCC(=O)O)NC(=O)[C@H](CCC(=O)O)NC(=O)[C@H](CC(=O)O)NC(=O)CCC(=O)O)C(C)C)C(=O)N[C@H](C(=O)N[C@@H](Cc1c[nH]c2ccccc12)C(=O)O)[C@@H](C)CC` [IRL1620, reference compound] (Suc-DEEAVYFAHLDIIW-OH) showed a mRS-7D (rat model of pMACO; [1]) of 2.54±2.03, a mRS-14D (rat model of pMACO; [1]) of 2.77±2.66 and a mRS-21D (rat model of pMACO; [1]) of 2.72±2.71. For the same compound, the mRS-30D (rat model of pMACO; [1]) was 2.52±2.87, the “Observations of Animal Status” value (male SD rats; subcutaneous 60 µg/Kg) was “Developed rapid breathing at 25 minutes after administration, recovered after 15 minutes; also recorded: Developed rapid breathing at 26 minutes after administration, recovered after 16 minutes; also recorded: Developed rapid breathing at 30 minutes after administration, recovered after 17 minutes; also recorded: Developed rapid breathing at 25 minutes after administration, recovered after 16 minutes” and the “Observations of Animal Status” value (male SD rats; subcutaneous 120 µg/Kg) was “Developed rapid breathing at 27 minutes after administration, gradually recovered after 50 minutes; also recorded: Developed rapid breathing at 26 minutes after administration and lasted for 23 minutes; then died; also recorded: Developed rapid breathing at 26 minutes after administration, gradually recovered after 50 minutes; also recorded: Developed rapid breathing at 28 minutes after administration, gradually recovered after 50 minutes”.

Reference: patent publication EP4702986A1, “POLYPEPTIDE AND USE THEREOF” (Biocells (Beijing) Biotech Co., Ltd., priority 2023, dated 2024)
